According to paper PMC4581293, “Structure-Based Optimization of Inhibitors of the Aspartic Protease Endothiapepsin” (International Journal of Molecular Sciences, 2015):

Target: T1, endothiapepsin (Cryphonectria parasitica, UniProt P11838)
T1 construct: Endothiapepsin was purified from Suparen; purchased DSM Food Specialties, Heerlen, The Netherlands (kindly provided) Suparen
T1 sequence (P11838 90-419): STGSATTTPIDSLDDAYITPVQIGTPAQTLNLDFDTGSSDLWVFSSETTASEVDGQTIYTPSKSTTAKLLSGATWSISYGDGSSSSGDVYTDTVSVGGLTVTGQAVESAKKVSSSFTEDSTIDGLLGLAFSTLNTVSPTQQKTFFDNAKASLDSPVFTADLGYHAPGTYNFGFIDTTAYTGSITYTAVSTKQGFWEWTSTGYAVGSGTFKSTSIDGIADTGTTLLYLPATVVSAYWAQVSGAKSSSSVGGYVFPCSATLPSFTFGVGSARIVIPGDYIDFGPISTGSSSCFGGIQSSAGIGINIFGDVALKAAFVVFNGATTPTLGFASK
Experiment: Fluorescence-based enzymatic inhibition assay (adapted from the HIV protease assay)
Assay type: biochemical
Details: for IC50: 0.4 nM endothiapepsin, 1.8 μM substrate, pH 4.6, 2.1% DMSO, E/Z mixture, duplicate, ± SD; for ΔGexpt, experimental Gibbs free energy of binding: derived from the experimentally determined IC50 values using the Cheng–Prusoff equation; for LE (ligand efficiency): obtained from the IC50 values using the Cheng–Prusoff equation
Excerpt: To determine their inhibitory potency against endothiapepsin, we subjected these acylhydrazone derivatives to a fluorescence-based enzymatic inhibition assay, adapted from the HIV protease assay.
Endothiapepsin was purified from Suparen® (kindly provided by DSM Food Specialties, Heerlen, The Netherlands) by exchanging the buffer to sodium acetate buffer (0.1 M, pH 4.6) using a Vivaspin 500 (Sartorius, Rotterdam, The Netherlands) with a molecular weight cutoff at 10,000 Da.
Stock solutions (100 mM in DMSO) were prepared for acylhydrazones 2–9 (mixture of E/Z isomers). The final reaction volume was 200 μL containing 0.4 nM endothiapepsin, 1.8 μM substrate and 2.1% DMSO. The final concentration of inhibitors was 1000 μM in the first well and subsequent half dilution in next 10 wells. In the same way, blanks were prepared using DMSO instead of the inhibitor stock solutions. As substrate, Abz–Thr–Ile–Nle-p-nitro-Phe–Gln–Arg–NH2 (purchased from Bachem, Bubendorf, Switzerland) was used for the fluorescence screening assay. The assay was performed with flat bottom 96-well microplates (purchased from Greiner Bio-One, Alphen aan den Rijn, The Netherlands) using a Synergy Mx microplate reader at an excitation wavelength of 337 nm and an emission wavelength of 414 nm. […] The assay buffer (0.1 M sodium acetate buffer, pH 4.6, containing 0.001% Tween 20) was premixed with the substrate and inhibitor; endothiapepsin was added directly before the measurement. As the substrate is a fluorogenic substrate, during measurement the fluorescence increased because of substrate hydrolysis by endothiapepsin. The initial slopes of the fluorescence in the acylhydrazone-containing wells were compared to the initial slope of the blanks for data analysis.

SMILES | IC50 [µM] | ΔGexpt, experimental Gibbs free energy of binding [kcal/mol] | LE (ligand efficiency)
Cc1cccc(C)c1/C=N/NC(=O)[C@@H](N)Cc1c[nH]c2ccccc12 [compound 8] | 30 ± 5 | -6.62 | 0.26
Cc1cccc(/C=N\NC(=O)[C@@H](N)Cc2c[nH]c3ccccc23)c1O [compound 5] | 36 ± 11 | -6.5 | 0.26
N[C@@H](Cc1c[nH]c2ccccc12)C(=O)N/N=C/c1ccc(C(F)(F)F)cc1 [compound 2] | 7 ± 0.5 | -7.48 | 0.28
N[C@@H](Cc1c[nH]c2ccccc12)C(=O)N/N=C/c1ccccc1Br [compound 6] | 54.5 ± 0.5 | -6.26 | 0.26
N[C@@H](Cc1c[nH]c2ccccc12)C(=O)N/N=C/c1ccccc1 [compound 9] | – | -6.31 | 0.27
N[C@@H](Cc1c[nH]c2ccccc12)C(=O)N/N=C/c1cccc(C(F)(F)F)c1 [compound 3] | 244 ± 32 | -5.38 | 0.20
N[C@@H](Cc1c[nH]c2ccccc12)C(=O)N/N=C/c1ccccc1F [compound 4] | 38 ± 7 | -6.48 | 0.27
Cc1ccccc1/C=N/NC(=O)[C@@H](N)Cc1c[nH]c2ccccc12 [compound 7] | 59 ± 4 | -6.21 | 0.26
